Reference: patent publication US20230159436A1, “APPLICATIONS OF AMIDE ANALOGS OF TRITERPENES IN CURES OF CANCER AND OTHER DISEASES” (Pacific Arrow Limited, priority 2021, published 2023)
Several values for one entry are separate records, joined by “and”; a condition that tells them apart may be missing. Equal values may be shown once.

Legend:
SK-Mel-5 = test: MTT assay, skin (SK-Mel-5); type: cell-based
Description: (§1) Cells. HTB-9 (bladder), HeLa-S3 (cervix), DU145 (prostate), H460 (lung), MCF-7 (breast), K562 (leukemia), HCT116 (colon), HepG2 (liver), U2OS (bone), T98G (brain), SK-MEL-5 (Skin) and OVCAR 3, ES2 (ovary), Pancreas (Capan), Mouth (KB), Kidney (A498).
(§2) MTT Assay. The procedure for MTT assay followed the method described by Carmichael et al. (1987) with modifications. The cells were seeded into a 96-well plate at for 24 hours before drug-treatment. The cells were then exposed to the drugs for 48, 72, or 96 hours. After the drug-treatment, MTT (0.5 mg/mL) was added to cultures and incubated for an hour. The formazan (product of the reduction of tetrazolium by viable cells) formed and was dissolved with DMSO and the O.D. at 490 nm, and was measured by an ELISA reader. The MTT level of the cells before drug-treatment was also measured (T0). The % cell-growth (% G) is calculated as: % G=(TD−T0/TC−T0)×100(1), where TC or TD represents O.D. readings of control or drug-treated cells.
(§3) When T0>TD, then the cytotoxicity (LC) expressed as % of the control is calculated as: % LC=(TD−T0/T0)×100(2).

T98G = test: MTT assay, brain (T98G); type: cell-based
Description: as §1, §2, §3

Swiss3T3 cells = test: Cytotoxicity determination in Swiss3T3 normal fibroblast; type: cell-based; settings: mouse normal fibroblast; preliminary results
Description: as §2

HepG2 = test: MTT assay, liver (HepG2); type: cell-based
Description: as §1, §2, §3

OVCAR3 = test: MTT assay, ovary (OVCAR3); type: cell-based
Description: as §1, §2, §3

DU145 = test: MTT assay, prostate (DU145); type: cell-based
Description: as §1, §2, §3

Capan cells = test: MTT assay, pancreas (Capan); type: cell-based, human
Description: as §1, §2, §3
A. Cells: Capan cells are derived from Human pancreas carcinoma (pancreas). Cells were grew in RPMI 1640 medium supplemented with 10% FCS, antibiotics and glutamine. […]
C. […] The percentage of drug-treated cells' growth as compared to those of the no drug control is determined.

[1] = system: cancer growth, cancer invasion, cells invasion or cancer cell invasion; test: Inhibition of cancer growth and invasion (anti-cancer activity); type: cell-based
Source text: The program is based on the purification methods and biological assays including the MTT assay as described in International Application No. PCT/US05/31900, filed Sep. 7, 2005, U.S. Ser. No. 11/289,142, filed Nov. 28, 2005, and U.S. Ser. No. 11/131,551, filed May 17, 2005, and PCT/US2008/002086, 1188-ALA-PCT, filed Feb. 15, 2008, Ser. No. 12/344,682, 1020-B1-US, filed Dec. 29, 2008, US009499577B2, filed Jun. 24, 2014. The details of Analysis of gene expression of ES2 cells after Y-treatment by Microarray, Data Analysis Methods and Western blot in PCT/US2008/002086, 1188-ALA-PCT, filed Feb. 15, 2008, and the cell invasion experiments methods in International Application PCT/US2010/0042240, filed Jul. 16, 2010.

H460 cells = test: MTT assay, lung (H460); type: cell-based, human
Description: as §1, §2, §3
A. Cells • H460 cells are derived from a Human Lung large cell carcinoma. Cells were grew in RPMI 1640 medium supplemented with 10% FCS, antibiotics and glutamine. 5000 cells were seeded in a well (96-welled plate) for one day before drug-treatment
B. Drug Treatment: • Drug: Tig-S (stored as a 1000× stock solution in DMSO) was used. • Drug concentration used: from 0.15-20 ug/ml. • Drug-treatment was carried out for 1, 2 and 4 days. For the 4 days incubation, cells were fed with fresh medium (with drug) on day 2.
C. At the end of the drug-treatment, cytotoxic test was performed with MTT assay.

WI38 cells = test: MTT assay, normal lung fibroblast (WI38); type: cell-based, human
Description: as §2, §3
(§4) Experiment 30: A Comparison of Non-Cancerous with Cancer Cells: • Method: A. Cells • WI38 is a Normal Lung fibroblast. Cells were grew in MEM medium supplemented with 10% FCS, antibiotics and glutamine. 20K cells were seeded per well (96-welled plate) for one day before drug-treatment • ES2 is a Ovary Clear cells carcinoma. Cells were grew in RPMI-1640 medium supplemented with 10% FCS, antibiotics and glutamine. 10K cells were seeded per well (96-welled plate) for one day before drug-treatment.
(§5) B. Drug Treatment: • Drug: Tig-S. stored as 1000× stock solution in DMSO. • Drug concentration used: from 0.15-20 ug/ml. • Drug-treatment was carried out for 2 days (ES2) or 6 days (WI38). For the 6 days incubation, cells were fed with fresh medium (with drug) on day 3 and 5.
(§6) C. At the End of the Drug-Treatment, Cytotoxic Test was Performed with MTT Assay.

ES2 cells = test: MTT assay, ovary (ES2); type: cell-based, human
Description: as §1, §2, §3, §4, §5, §6

## CC=C(C)C(=O)OCC1(C)C(O)CCC2(C)C1CCC1(C)C2CC=C2C3CC(C)(C)C(O)C(O)C3(COC(=O)C(C)=CC)C(O)CC21C (stereo not drawn) [Tig-R, 24,28-O-Tigloyl-3β,16α,21β,22α,24β,28-hexahydroxyolean-12-ene]
SK-Mel-5
  IC50 of skin (SK-Mel-5): 5.1 µg/mL
T98G
  IC50 of brain (T98G): 8 µg/mL
Swiss3T3 cells
  IC50 in SW3T3 cells: above 20 ug/ml
HepG2
  IC50 of liver (HepG2): 6 µg/mL
OVCAR3
  IC50 of ovary (OVCAR3): 5.8 µg/mL
DU145
  IC50 of prostate (DU145): 3.6 µg/mL
Capan cells
  IC50 of pancreas (Capan): 2.4 µg/mL
[1]
  anti-cancer activity: have anti cancer activities
H460 cells
  IC50 of lung (H460): 4.8 µg/mL
WI38 cells
  IC50 in normal human fibroblast cells (WI38): 10 to 15 µg/mL
ES2 cells
  IC50 of ovary (ES2): 2.8 ug/ml and about 2.8 ug/ml

## CC=C(C)C(=O)OCC1(C)C(O)CCC2(C)C1CCC1(C)C2CC=C2C3CC(C)(C)C(OC(=O)C(C)=CC)C(O)C3(CO)C(O)CC21C (centres unmarked) [Tig-S]
OVCAR3
  IC50, inhibition of ovarian cancer (OCAR3) cells' growth: 2.5 µg/mL
  IC50 of ovary (OVCAR3): 6.5
Capan cells; drug-treatment 3 days
  IC50, inhibition of pancreas cancer (Capan) cells' growth: about 1 ug/ml
[1]
  anti-cancer activity: have anti cancer activities
H460 cells; 4 days
  IC50, inhibition of lung H460 cells growth: 3 µg/mL
H460 cells; Experiment 32, drug-treatment 1, 2 and 4 days
  IC50, inhibition of H460 cells' growth: 3 µg/mL
H460 cells; H460
  drug concentration beyond which minimum cells growth inhibition was observed: > 5 µg/mL
H460 cells; H460, drug concentration 20 ug/ml
  dead cells: No dead cell was found
H460 cells; one day
  IC50, inhibition of lung H460 cells growth: 3.4 µg/mL
WI38 cells; 6 days
  IC50, inhibition of WI38 cells: 1.5 µg/mL
WI38 cells; WI38, at 10 ug/ml
  % of the control cell growth: about 55%
WI38 cells; WI38, at 20 ug/ml
  MTT OD, % of the original value: about 90%
  cell lost or dead: about 10%
WI38 cells; WI38, with 10 ug/ml
  cells died: 10%
ES2 cells; 2 days
  IC50, inhibition of ES2 cells: 0.3 µg/mL
ES2 cells; ES2
  IC100 (100% inhibition of growth, no cell lost): 0.16 to 0.3 µg/mL and 0.15 to 0.3 µg/mL
ES2 cells; ES2, at 10 ug/ml
  % of the control cell growth: 10%
  MTT OD, % of the original value: 12%
